Measurements published in patent publication US9353107B2 (Aurigene Discovery Technologies Limited, priority 2012, dated 2016).

Target: T1, recombinant human ALK enzyme (ALK WT) (Homo sapiens, UniProt Q9UM73)
T1 construct: purchased Carna Biosciences 08-518
Test: ALK WT cell free enzymatic assay (TR-FRET)
Type: biochemical
Details: 1 μM ATP; for IC50: 10 point dose response; for inhibition at 0.1 µM: compound at 100 nM; for inhibition at 0.1 µM / inhibition at 1 µM: 30 min pre-incubation; for inhibition at 1 µM: compound at 1 μM
Outline: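 Read-out is TR-FRET (665 nm/615 nm ratio) using an Eu-labeled anti-phosphotyrosine antibody. Compound is pre-incubated 30 min with recombinant human ALK, then reacted 30 min with 1 μM ATP and 40 nM Poly GT substrate. Values are percent inhibition at 100 nM and 1 μM, plus IC50 from 10-point variable-slope regression.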

T1 sequence (Q9UM73 1058-1620 limits assumed): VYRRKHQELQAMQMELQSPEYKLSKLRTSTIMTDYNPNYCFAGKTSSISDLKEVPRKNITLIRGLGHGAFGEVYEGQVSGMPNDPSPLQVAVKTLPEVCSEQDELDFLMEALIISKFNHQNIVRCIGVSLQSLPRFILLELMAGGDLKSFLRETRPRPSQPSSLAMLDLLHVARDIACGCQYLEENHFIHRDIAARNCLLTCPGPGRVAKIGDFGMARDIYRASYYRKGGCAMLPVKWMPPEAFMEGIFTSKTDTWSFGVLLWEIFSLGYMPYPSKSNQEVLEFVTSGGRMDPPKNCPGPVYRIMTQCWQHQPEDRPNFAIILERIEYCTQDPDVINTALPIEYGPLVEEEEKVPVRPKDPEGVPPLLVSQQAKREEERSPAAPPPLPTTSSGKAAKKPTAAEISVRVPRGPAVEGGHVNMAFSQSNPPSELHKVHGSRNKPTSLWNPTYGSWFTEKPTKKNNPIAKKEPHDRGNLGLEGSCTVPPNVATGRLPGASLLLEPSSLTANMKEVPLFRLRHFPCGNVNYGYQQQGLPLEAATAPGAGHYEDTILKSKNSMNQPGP

| SMILES | IC50 | inhibition at 0.1 µM | inhibition at 1 µM |
| --- | --- | --- | --- |
| c1cc(Cn2cc(-c3c[nH]c4ncc(-c5ccc(C6CCNCC6)cc5)cc34)cn2)ccn1 [Example 171, 5-(4-(piperidin-4-yl)phenyl)-3-(1-(pyridin-4-ylmethyl)-1H-pyrazol-4-yl)-1H-pyrrolo[2,3-b]pyridine] | 50 to 250 nM | 41% | 88% |
| Fc1cccc(Cn2cc(-c3c[nH]c4ncc(-c5ccc(N6CCNCC6)c(F)c5)cc34)cn2)c1 [Example 172, 5-(3-fluoro-4-(piperazin-1-yl)phenyl)-3-(1-(3-fluorobenzyl)-1H-pyrazol-4-yl)-1H-pyrrolo[2,3-b]pyridine] | < 50 nM | 99% | 100% |
| Fc1cccc(Cn2cc(-c3c[nH]c4ncc(-c5cnc(N6CCNCC6)c(F)c5)cc34)cn2)c1 [Example 173, 5-(5-fluoro-6-(piperazin-1-yl)pyridin-3-yl)-3-(1-(3-fluorobenzyl)-1H-pyrazol-4-yl)-1H-pyrrolo[2,3-b]pyridine] | < 50 nM | 92% | 98% |
| COc1cc(-c2cnc3[nH]cc(-c4cnn(Cc5cccc(F)c5)c4)c3c2)cnc1N1CCNCC1 [Example 174, 3-(1-(3-fluorobenzyl)-1H-pyrazol-4-yl)-5-(5-methoxy-6-(piperazin-1-yl)pyridin-3-yl)-1H-pyrrolo[2,3-b]pyridine] | < 50 nM | 96% | 100% |
| Cc1nn(Cc2cccc(F)c2)c(C)c1-c1c[nH]c2ncc(-c3ccc(C4CCNCC4)c(F)c3)cc12 [Example 175, 5-(3-fluoro-4-(piperidin-4-yl)phenyl)-3-(1-(3-fluorobenzyl)-3,5-dimethyl-1H-pyrazol-4-yl)-1H-pyrrolo[2,3-b]pyridine] | < 50 nM | 96% | 100% |
| CS(=O)(=O)Nc1cc(-c2cnc3[nH]cc(-c4ccn(Cc5cc(F)cc(F)c5)n4)c3c2)ccc1C1CCNCC1 [Example 176, N-(5-(3-(1-(3,5-difluorobenzyl)-1H-pyrazol-3-yl)-1H-pyrrolo[2,3-b]pyridin-5-yl)-2-(piperidin-4-yl)phenyl)methanesulfonamide] | < 50 nM | 86% | 99% |

Next, values leading:

| IC50 | inhibition at 0.1 µM | inhibition at 1 µM | SMILES |
| --- | --- | --- | --- |
| < 50 nM | 96% | 100% | COc1cc(-c2cnc3[nH]cc(-c4c(C)nn(Cc5cc(F)cc(F)c5)c4C)c3c2)cnc1N [Example 177, 5-(3-(1-(3,5-difluorobenzyl)-3,5-dimethyl-1H-pyrazol-4-yl)-1H-pyrrolo[2,3-b]pyridin-5-yl)-3-methoxypyridin-2-amine] |
| < 50 nM | 94% | 100% | COc1cc(-c2cnc3[nH]cc(-c4c(C)nn(Cc5cccc(F)c5)c4C)c3c2)cnc1N [Example 178, 5-(3-(1-(3-fluorobenzyl)-3,5-dimethyl-1H-pyrazol-4-yl)-1H-pyrrolo[2,3-b]pyridin-5-yl)-3-methoxypyridin-2-amine] |
| < 50 nM | 92% | 99% | CN1CCN(c2ncc(-c3cnc4[nH]cc(-c5cnn(Cc6cccc(F)c6)c5)c4c3)cc2F)CC1 [Example 179, 5-(5-fluoro-6-(4-methylpiperazin-1-yl)pyridin-3-yl)-3-(1-(3-fluorobenzyl)-1H-pyrazol-4-yl)-1H-pyrrolo[2,3-b]pyridine] |
| < 50 nM | 93% | 100% | C[C@@H](O)CN1CCN(c2ncc(-c3cnc4[nH]cc(-c5cnn(Cc6cccc(F)c6)c5)c4c3)cc2F)CC1 [Example 180, (R)-1-(4-(3-fluoro-5-(3-(1-(3-fluorobenzyl)-1H-pyrazol-4-yl)-1H-pyrrolo[2,3-b]pyridin-5-yl)pyridin-2-yl)piperazin-1-yl)propan-2-ol] |
